Experiments:
[1] = Cytotoxicity determination in HepG2.2.15 cells (CCK-8 cell viability); assay type: cell-based; conditions: human, 6 days treatment, CCK-8 assay, highest concentration 100 uM
Description: (§1) HepG2.2.15 (the HepG2.2.15 cell line can be produced by transfection of the HepG2 cell line as described in Sells, Chen, and Acs 1987 (Proc. Natl. Acad. Sci. USA 84: 1005-1009), and the HepG2 cell line is available from ATCC® under number HIB-8065™)
(§2) HepG2.2.15 cells were plated into 96-well plate in 2% FBS culture medium at the density of 40,000 cells/well and 5,000 cells/well for HBV inhibitory activity and cytotoxicity determination, respectively. After incubation at 37° C., 5% CO2 overnight, cells were treated with medium containing compounds for 6 days with medium and compounds refreshed after 3 days of treatment. Each compound was tested in a 1:3 serial dilutions at 8 different concentrations in triplicate. The highest concentration of the compounds was 10 uM or 1 uM for anti-HBV activity assay and 100 uM for cytotoxicity determination.
Cell viability was determined by CCK-8 assay. After 6 days of compounds treatment, 20 μl CCK-8 reagents were added to each well of cytotoxicity assay plates. Cell plates were incubated at 37° C., 5% CO2 for 2.5 h. The absorbance at 450 nm wavelength and the absorbance at 630 nm wavelength as reference was measured.
(§3) 2) DATA Analysis EC50 and CC50 values are calculated by the GRAPTIPAD PRISM software.

HBV = assay: Anti-HBV activity in HepG2.2.15 cells (HBV DNA in culture medium by qPCR); assay type: cell-based; conditions: Hepatitis B virus, HepG2.2.15, 144 h, HepG2.2.15 cells, 6 days treatment, HBV DNA in culture medium quantified by real-time PCR; read-out: EC50
Description: Example 2: Anti-Viral Assay in HepG2.2.15 Cells
as §1, §2
The change of HBV DNA level induced by the compounds was assessed by quantitative real-time polymerase chain reaction (qPCR). Briefly, the HBV DNA in the culture medium was extracted using QIAamp 96 DNA Blood Kit according to the manual and then quantified by real-time PCR assay using the primers and probe in the table 2 below.
as §3

Row | Compound | CC50 at 6 days [1] [nM] | EC50 (HBV) [nM]
1 | CCOC(=O)C1=C(CN2CC(F)(F)[C@@H]3C(=O)N(C(=O)NCC(C)(C)C(=O)O)C[C@@H]32)NC(c2nccs2)=N[C@H]1c1cccc(F)c1C (single isomer, unassigned) [Compound 188] | 32100 | 62.4
2 | COC(=O)C1=C(CN2CC(F)(F)[C@H]3[C@@H]2CCN3C[C@@H](C)C(=O)O)NC(c2nccs2)=N[C@H]1c1ccc(F)cc1Cl (single isomer, unassigned) [Compound 133A, 3-((cis)-4-((6-(2-Chloro-4-fluorophenyl)-5-(methoxycarbonyl)-2-(thiazol-2-yl)-3,6-dihydropyrimidin-4-yl)methyl)-6,6-difluorohexahydropyrrolo[3,2-b]pyrrol-1(2H)-yl)-2-methylpropanoic acid] | 41700 | < 0.5
3 | CCOC(=O)C1=C(CN2CC(F)(F)[C@H]3[C@@H]2CCN3CCC(C)(C)C(=O)O)NC(c2nccs2)=N[C@@H]1c1ccc(F)nc1C (relative stereo) [Compound 121, 4-((cis)-4-(((R)-5-(ethoxycarbonyl)-6-(6-fluoro-2-methylpyridin-3-yl)-2-(thiazol-2-yl)-3,6-dihydropyrimidin-4-yl)methyl)-6,6-difluorohexahydropyrrolo[3,2-b]pyrrol-1(2H)-yl)-2,2-dimethylbutanoic acid] | > 100000 | 8.7
4 | COC(=O)C1=C(CN2CC(F)(F)[C@@H]3[C@H]2CON3CCC(C)(C)C(=O)O)NC(c2nccs2)=N[C@H]1c1cccc(F)c1F (single isomer, unassigned) [Compound 167, 4-((cis)-4-((6-(2,3-difluorophenyl)-5-(methoxycarbonyl)-2-(thiazol-2-yl)-3,6-dihydropyrimidin-4-yl)methyl)-6,6-difluorohexahydro-1H-pyrrolo[3,2-c]isoxazol-1-yl)-2,2-dimethylbutanoic acid] | > 100000 | 16.3
5 | CCOC(=O)C1=C(CN2CC(F)(F)[C@H]3[C@@H]2CCN3C[C@H]2CC[C@H]2C(=O)O)NC(c2nccs2)=N[C@H]1c1cccc(F)c1C (single isomer, unassigned) [Compound 130B] | 18200 | < 0.5
6 | CCOC(=O)C1=C(CN2CC(F)(F)C3CC(C(=O)O)CC32)NC(c2nccs2)=N[C@H]1c1cccc(F)c1C (stereo partly drawn) [Compound 2, (cis)-1-(((S)-5-(ethoxycarbonyl)-6-(3-fluoro-2-methylphenyl)-2-(thiazol-2-yl)-3,6-dihydropyrimidin-4-yl)methyl)-3,3-difluorooctahydrocyclo-penta[b]pyrrole-5-carboxylic acid] | 26700 | 4.1
7 | CCOC(=O)C1=C(CN2CC(F)(F)[C@@H]3[C@H]2CN(C(=O)[C@H]2CC2(F)F)N3CCC(C)(C)C(=O)O)NC(c2nccs2)=N[C@H]1c1cccc(F)c1C (single isomer, unassigned) [Compound 72A] | 14500 | 55
8 | CCOC(=O)C1=C(CN2CC(F)(F)[C@@H]3C(=O)N(C[C@@H](C)C(=O)O)C[C@@H]32)NC(c2nccs2)=N[C@H]1c1cccc(F)c1C (single isomer, unassigned) [Compound 181A] | 52900 | 12.3
9 | CCOC(=O)C1=C(CN2CC(F)(F)[C@H]3CN([C@@H](C)C(=O)O)C[C@H]32)NC(c2nccs2)=N[C@H]1c1cccc(F)c1C (single isomer, unassigned) [Compound 14F] | > 100000 | 125
10 | CCOC(=O)C1=C(CN2CC(F)(F)[C@H]3[C@@H]2CCN3CCC(C)(C)C(=O)O)NC(c2ncoc2C)=N[C@@H]1c1cccc(F)c1C (relative stereo) [Compound 107, 4-(4-((5-(ethoxycarbonyl)-6-(3-fluoro-2-methylphenyl)-2-(5-methyloxazol-4-yl)-3,6-dihydropyrimidin-4-yl)methyl)-6,6-difluorohexahydropyrrolo[3,2-b]pyrrol-1(2H)-yl)-2,2-dimethylbutanoic acid] | 42500 | 11.3
11 | CCOC(=O)C1=C(CN2CC(F)(F)C3C(=O)N(C[C@H](C)C(=O)O)C[C@@H]32)NC(c2nccs2)=N[C@H]1c1cccc(F)c1C (single isomer, unassigned) [Compound 181B] | 69900 | 9.5
12 | CCOC(=O)C1=C(CN2CC(F)(F)[C@H]3[C@@H]2CCN3CCCC(C)(C)C(=O)O)NC(c2nccs2)=N[C@H]1c1cccc(F)c1C (single isomer, unassigned) [Compound 144] | 20200 | 19.8
13 | COC(=O)C1=C(CN2CC(F)(F)[C@H]3[C@@H]2CCN3CCC(C)(C)C(=O)O)NC(c2nccs2)=N[C@H]1c1ccc(F)cc1Cl (single isomer, unassigned) [Compound 127, 4-((cis)-4-((6-(2-Chloro-4-fluorophenyl)-5-(methoxycarbonyl)-2-(thiazol-2-yl)-3,6-dihydropyrimidin-4-yl)methyl)-6,6-difluorohexahydropyrrolo[3,2-b]pyrrol-1(2H)-yl)-2,2-dimethylbutanoic acid] | 47200 | 1.6
14 | COC(=O)C1=C(CN2CC(F)(F)[C@H]3[C@@H]2CCN3C[C@H](C)C(=O)O)NC(c2nccs2)=N[C@H]1c1ccc(F)c(F)c1Cl (single isomer, unassigned) [Compound 134B, 3-((cis)-4-((6-(2-chloro-3,4-difluorophenyl)-5-(methoxycarbonyl)-2-(thiazol-2-yl)-3,6-dihydropyrimidin-4-yl)methyl)-6,6-difluorohexahydropyrrolo[3,2-b]pyrrol-1(2H)-yl)-2-methylpropanoic acid] | 24200 | 4.3
15 | COC(=O)C1=C(CN2CC(F)(F)[C@@H]3C(=O)N(CC(C)(C)C(=O)O)C[C@@H]32)NC(c2nccs2)=N[C@H]1c1ccc(F)c(F)c1Cl (single isomer, unassigned) [Compound 42, 3-((cis)-1-((6-(2-Chloro-3,4-difluorophenyl)-5-(methoxycarbonyl)-2-(thiazol-2-yl)-3,6-dihydropyrimidin-4-yl)methyl)-3,3-difluoro-4-oxohexahydropyrrolo[3,4-b]pyrrol-5(1H)-yl)-2,2-dimethylpropanoic acid] | > 100000 | 13.8
16 | CCOC(=O)C1=C(CN2CC(F)(F)[C@@H]3C(=O)N([C@H]4CC[C@@H](C(=O)O)CC4)C[C@@H]32)NC(c2nccs2)=N[C@H]1c1cccc(F)c1C (single isomer, unassigned) [Compound 44A] | > 100000 | 56.7
17 | CCOC(=O)C1=C(CN2CC(F)(F)[C@@H]3CN([C@H]4CC[C@@H](C(=O)O)CC4)C(=O)[C@@H]32)NC(c2nccs2)=N[C@H]1c1cccc(F)c1C (single isomer, unassigned) [Compound 185A] | 48300 | 5.4
18 | CCOC(=O)C1=C(CN2CC(F)(F)[C@H]3[C@@H]2CCN3C2CCC(C(=O)O)CC2)NC(c2nccs2)=N[C@H]1c1cccc(F)c1C (single isomer, unassigned) [Compound 104B] | > 6200 | 8
19 | CCOC(=O)C1=C(CN2CC(F)(F)C3C2CCN3CC(C)(C)C(=O)O)NC(c2nccs2)=N[C@H]1c1cccc(F)c1C (stereo partly drawn) [Compound 1, 3-(4-(((S)-5-(ethoxycarbonyl)-6-(3-fluoro-2-methylphenyl)-2-(thiazol-2-yl)-3,6-dihydropyrimidin-4-yl)methyl)-6,6-difluorohexahydropyrrolo[3,2-b]pyrrol-1(2H)-yl)-2,2-dimethylpropanoic acid] | 24800 | 10.6
20 | CCOC(=O)C1=C(CN2CC(F)(F)[C@@H]3NCC[C@@H]32)NC(c2nccs2)=N[C@H]1c1cccc(F)c1C (single isomer, unassigned) [Compound 103] | 19800 | 54.3
21 | CCOC(=O)C1=C(CN2CC(F)(F)C3C(=O)N(C[C@@H](CC)C(=O)O)C[C@@H]32)NC(c2nccs2)=N[C@H]1c1cccc(F)c1C (single isomer, unassigned) [Compound 182A] | 49600 | 23.9
22 | CCOC(=O)C1=C(CN2CC(F)(F)[C@H]3[C@@H]2CCN3C2CCC(C(=O)O)C2)NC(c2nccs2)=N[C@H]1c1cccc(F)c1C (single isomer, unassigned) [Compound 115] | 24000 | 3.1
23 | CCOC(=O)C1=C(CN2CC(F)(F)[C@@H]3[C@H]2CON3CCC(C)(C)C(=O)O)NC(c2nccs2)=N[C@H]1c1ccc(F)c(F)c1Cl (single isomer, unassigned) [Compound 163, (cis)-4-(4-((6-(2-chloro-3,4-difluorophenyl)-5-(ethoxycarbonyl)-2-(thiazol-2-yl)-3,6-dihydropyrimidin-4-yl)methyl)-6,6-difluorohexahydro-1H-pyrrolo[3,2-c]isoxazol-1-yl)-2,2-dimethylbutanoic acid] | 45600 | 2
24 | CCOC(=O)C1=C(CN2CC(F)(F)[C@H]3[C@@H]2CCN3CCC(C)C(=O)O)NC(c2nccs2)=N[C@H]1c1cccc(F)c1C (single isomer, unassigned) [Compound 147] | 34600 | < 0.5

— patent US20230083012A1, “DIHYDROPYRIMIDINE DERIVATIVES AND USES THEREOF IN THE TREATMENT OF HBV INFECTION OR OF HBV-INDUCED DISEASES” (priority 2019, published 2023)
